Assay results from patent US20050239173A1, “Production of amino sugars” (Cargill, Inc., priority 2003, published 2005).

How the values were obtained:
[1] = molecular target: glucosamine-6-phosphate synthase (Escherichia coli, UniProt P17169); conditions: White, Biochem. J. 106:847-858 (1968); cited from earlier work
[2] = molecular target: T1, E. coli N-acetylglucosamine-6-phosphate deacetylase (Escherichia coli, UniProt P0AF18); test: Enzymatic deacetylation of N-acetylglucosamine followed over time (Elson and Morgan assay); type: biochemical; conditions: 37° C.; for [Glucosamine]: 0.1 mL of 500 mM N-acetylglucosamine in 0.2 mL, Tris-HCl pH 7.8, nagA cell extract
T1 construct: The Xa protease recognition site (IEGR) sits directly in front of the start codon of the gene of interest; His-tag (N); S-tag (N); Factor Xa recognition site (IEGR) (N); made in house; host or cells: E. coli BL21(DE3), pET30(Xa/LIC)
Protocol: Fermentation broth and cell extract samples were routinely assayed using the method of Elson and Morgan (Biochem. J. 27:1824-1828) described by Zalkin (1985, Method Enzymol. 113:278-281) and Roden et al. (1997, Anal. Biochem. 254:240-248). Typically, to 0.08 mL of fermentation broth or 0.015 to 0.02 mL of cell extract was added 0.01 mL of saturated sodium bicarbonate solution and 0.01 mL of cold, freshly prepared 5% aqueous acetic anhydride. After a 3 minute incubation at room temperature, the mixture was incubated at 100° C. for 3 min to drive off the excess acetic anhydride. After cooling to room temperature, 0.12 mL of potassium borate, pH 9.2, was added and the mixture was incubated at 100° C. for 3 min. After cooling to room temperature, 1.0 mL of Ehrlich's reagent (1 gram p-dimethylaminobenzaldehyde in 100 mL glacial acetic acid containing 0.125 M HCl) was added to each tube. The tubes were incubated at 37° C. for 20 min and the absorbance at 585 nm was measured. All samples were assayed in duplicate. A standard curve was generated using 0.005 to 0.1 μmole glucosamine for quantification of product formation. Samples were assayed with and without the acetic anhydride addition to determine the amounts of glucosamine and N-acetylglucosamine present in the sample. The amount of N-acetylglucosamine was calculated from the results of assays without the acetic anhydride addition. The amount of glucosamine was calculated as the difference between the results with and without the acetic anhydride addition.
The enzymatic deacetylation of N-acetylglucosamine was followed over time. In a total of 0.2 mL was mixed 0.1 mL of 500 mM N-acetylglucosamine, 0.02 mL of 0.5 M Tris-HCl, pH 7.8 and nagA protein (cell extract fraction; 3.5 mg/mL protein). The mixtures were incubated from 0 to 120 min at 37° C. To distinguish between glucosamine and N-acetylglucosamine using the Elson and Morgan method described in the Materials and Methods section, the product formation in the samples was measured with and without the acetylation step. The amount of glucosamine was calculated as the difference between the assay results with and without the acetylation step. After 120 min approximately 74% of the substrate N-acetylglusosamine was converted to glucosamine.

osteoarthritis = conditions: patients; cited from earlier work
[3] = tested on: S. cerevisiae strain BY4742; test: Growth of S. cerevisiae strains in the presence of glucosamine (OD600); type: cell-based, Saccharomyces cerevisiae; conditions: parental strains of Examples 1-3 (BY4742 and BY4743); concentrations of glucosamine as high as 20 g/L
[4] = tested on: S. cerevisiae strain BY4743; test: as above; type: cell-based, Saccharomyces cerevisiae; conditions: BY4743 GFA1pESCHis
Protocol: (§1) S. cerevisiae strains BY4742 and BY4743 transformed with pESCHis carrying the GFA1 insert were grown in 5 mL SC-His medium containing 2% glucose overnight at 30° C. with shaking. An aliquot (0.5 mL) from each culture was transferred to 6 flasks containing 50 mL of SC-His medium containing 2% glucose. Glucosamine at the following concentrations was added to the flasks: 0, 2, 6, 10, 15, 20 mg/mL for each strain. The incubation was continued for 28 h at 30° C. with shaking. At 3, 16 and 28 h samples were withdrawn and the optical density at 600 nm was measured.

[5] = tested on: S. cerevisiae strain BY4742; test: as above; type: cell-based, Saccharomyces cerevisiae; conditions: BY4742 GFA1pESCHis
Protocol: as §1

Chain of glucosamine-6-phosphate synthase (P17169 whole entry): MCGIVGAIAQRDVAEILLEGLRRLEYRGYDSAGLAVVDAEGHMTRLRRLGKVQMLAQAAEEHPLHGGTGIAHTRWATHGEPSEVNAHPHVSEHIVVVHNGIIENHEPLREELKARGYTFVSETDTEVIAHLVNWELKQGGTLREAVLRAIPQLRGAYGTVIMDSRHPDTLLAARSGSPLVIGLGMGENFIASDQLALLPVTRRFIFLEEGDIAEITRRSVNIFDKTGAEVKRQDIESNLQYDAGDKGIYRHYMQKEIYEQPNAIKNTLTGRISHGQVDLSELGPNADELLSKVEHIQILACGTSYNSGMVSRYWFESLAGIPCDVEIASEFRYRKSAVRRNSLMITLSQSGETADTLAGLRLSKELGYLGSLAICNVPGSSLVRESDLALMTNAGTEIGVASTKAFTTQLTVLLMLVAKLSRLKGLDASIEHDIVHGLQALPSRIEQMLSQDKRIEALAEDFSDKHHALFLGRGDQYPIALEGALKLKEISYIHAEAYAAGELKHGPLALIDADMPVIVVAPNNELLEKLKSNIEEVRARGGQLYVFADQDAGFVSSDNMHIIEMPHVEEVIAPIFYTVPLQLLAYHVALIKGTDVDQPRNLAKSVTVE

## N[C@H]1C(O)O[C@H](COP(=O)(O)O)[C@@H](O)[C@@H]1O (stereo partly shown) [glucosamine-6-phosphate]
[1]
  inhibition of glucosamine-6-phosphate synthase activity: inhibited

## CC(=O)N[C@@H](C=O)[C@@H](O)[C@H](O)[C@H](O)CO [N-acetylglucosamine, 2-acetamino-2-deoxy-D-glucose]
[2]; 0 min
  [Glucosamine]: 0.0 mM
[2]; 15 min
  [Glucosamine]: 126.3 mM
[2]; 30 min
  [Glucosamine]: 136.3 mM
[2]; 60 min
  [Glucosamine]: 161.3 mM
[2]; 120 min
  [Glucosamine]: 185.0 mM
[2]; after 120 min, nagA cell extract
  substrate converted to glucosamine: approximately 74%

## N[C@H]1C(O)O[C@H](CO)[C@@H](O)[C@@H]1O (stereo partly shown) [glucosamine, 2-amino-2-deoxyglucopyranose]
osteoarthritis
  effect on joint structure: improve joint structure
  effect on pain of osteoarthritis: reduce the pain of osteoarthritis in some patients
[3]
  effect of glucosamine on the parental strains: not affected
[4]; glucosamine 2.0 mg/mL, 3 h
  OD600: 0.74
[4]; glucosamine 2.0 mg/mL, 16 h
  OD600: 4.12
[4]; glucosamine 2.0 mg/mL, 28 h
  OD600: 4.69
[4]; glucosamine 6.0 mg/mL, 3 h
  OD600: 0.76
[4]; glucosamine 6.0 mg/mL, 16 h
  OD600: 3.99
[4]; glucosamine 6.0 mg/mL, 28 h
  OD600: 5.02
[4]; glucosamine 10.0 mg/mL, 3 h
  OD600: 0.66
[4]; glucosamine 10.0 mg/mL, 16 h
  OD600: 4.18
[4]; glucosamine 10.0 mg/mL, 28 h
  OD600: 4.36
[4]; glucosamine 15.0 mg/mL, 3 h
  OD600: 0.68
[4]; glucosamine 15.0 mg/mL, 16 h
  OD600: 4.00
[4]; glucosamine 15.0 mg/mL, 28 h
  OD600: 4.14
[4]; glucosamine 20.0 mg/mL, 3 h
  OD600: 0.38
[4]; glucosamine 20.0 mg/mL, 16 h
  OD600: 3.78
[4]; glucosamine 20.0 mg/mL, 28 h
  OD600: 3.98
[5]; glucosamine 2.0 mg/mL, 3 h
  OD600: 0.71
[5]; glucosamine 2.0 mg/mL, 16 h
  OD600: 3.06
[5]; glucosamine 2.0 mg/mL, 28 h
  OD600: 3.32
[5]; glucosamine 6.0 mg/mL, 3 h
  OD600: 0.66
[5]; glucosamine 6.0 mg/mL, 16 h
  OD600: 2.98
[5]; glucosamine 6.0 mg/mL, 28 h
  OD600: 3.27
[5]; glucosamine 10.0 mg/mL, 3 h
  OD600: 0.64
[5]; glucosamine 10.0 mg/mL, 16 h
  OD600: 2.87
[5]; glucosamine 10.0 mg/mL, 28 h
  OD600: 3.06
[5]; glucosamine 15.0 mg/mL, 3 h
  OD600: 0.60
[5]; glucosamine 15.0 mg/mL, 16 h
  OD600: 2.92
[5]; glucosamine 15.0 mg/mL, 28 h
  OD600: 3.22
[5]; glucosamine 20.0 mg/mL, 3 h
  OD600: 0.57
[5]; glucosamine 20.0 mg/mL, 16 h
  OD600: 2.84
[5]; glucosamine 20.0 mg/mL, 28 h
  OD600: 3.02
